The values that follow come from US5527900A, “N3-alkyl-2',5'-0-silylated-3'-spiro-thymidine derivatives” (Stitching Rega VZW, priority 1991, dated 1996).

Each structure is given as a SMILES string. In brackets after ≈: the same amount, converted by molar mass. Where two headings read alike, the source gives them in different places.

The nature of data set [1]: Partition coefficient (Pa) between 1-octanol and 10 mM potassium phosphate buffer. In kind it is physicochemical. The settings on record: 1-octanol / 10 mM potassium phosphate buffer, pH 7.5, 50 μM. How it is done:
Partition of the test compounds between 1-octanol (Merck, Darmstadt, Germany) and 10 mM potassium phosphate buffer, pH, 7.5 (Merck), was measured as described in Balzarini et al., Biochem, Biophys. Res. Commun. 158: 413-422 (1989). Briefly, a 50 μM concentration of the test compound in potassium phosphate buffer was thoroughly mixed with an equal volume of 1-octanol for 30 min at room temperature. Then, the mixture was further equilibrated at room temperature and UV absorption was measured for the aqueous and alcoholic liquid phases. The partition coefficient (Pa) was calculated as the ratio of the compound concentration present in the 1-octanol phase to the compound concentration present in the aqueous phase.

For data set [2] the following is noted: AIDS patients; cited from earlier work.
For data set [3], the system named is MT-4 cells. The experiment in a line: Cytotoxicity for MT-4 cells depending on exposure time. It counts as cell-based. Here is the method: The toxicity of test compounds upon a 2-hr incubation period was determined by exposing MT-4 cells (3.5×10^5 cells/ml) to 100, 20, 4, 0.8 or 0.16 μg/ml of the test compounds for 2 hours at 37° C. Subsequently the cells were washed with culture medium. The pretreated cells were seeded in microplate wells at 70×10^3 cells/200 μl-well and allowed to grow for 3 days at 37° C. Control cultures received similar concentrations of the test compounds during the whole incubation period. Then, cells were counted in a Coulter counter (Harpenden Hertz, England) and the CC50 values were determined for each compound.
Mt-4 cells were suspended in culture medium, infected with HIV-1 and brought into microplate wells as described above.

The subject of a further data set is HIV-1. Nature of the data set: Antiviral activity upon delayed addition to HIV-1-infected MT-4 cells. It counts as cell-based. The settings on record: for antiviral activity on delayed addition: addition delayed by 41 to 48 hours. How it is done:
(§1) In order to evaluate the inhibitory effects against retrovirus-induced cytopathogenicity in MT-4cells, said cells (5×10^5 cells/ml) were suspended in fresh culture medium and infected with HIV-1, HIV-2 or SIOV at 100 times the cell culture infective dose-50 (CCID50) per ml cell suspension (1 CCID50 being the dose infective for 50% of the cell cultures). Then, 100 μl of the infected cell suspension were transferred to microplate wells, mixed with 100 μl of the appropriate dilutions of the test compounds, and further incubated at 37° C. After 5 days, the number of viable cells was determined in a blood cell-counting chamber by trypan blue staining for both virus-infected and mock-infected cell cultures.
Mt-4 cells were suspended in culture medium, infected with HIV-1 and brought into microplate wells as described above. […] After 5 days, the number of viable cells was determined and the EC50 and CC50 values for the test compounds were defined as described in example 1.

The next data set deals with MT-4 cell DNA synthesis. Nature of the data set: Incorporation of radiolabeled precursors into MT-4 cell DNA. In kind it is cell-based. As to conditions: Homo sapiens. An excerpt: (§2) The radiolabeled nucleosides [methyl-^3 H]dThd (specific radioactivity: 40 Ci/mmol), [5-^3 H]dUrd (specific radioactivity: 27 Ci/mmol), [5-^3 H]dCyc (specific radioactivity: 18.2 Ci/mmol) and the radiolabeled amino acid L-[4,5-^3 H]leucine (specific radioactivity: 52 Ci/mmol were derived from the Radiochemcial Centre (Amersham, England); [5-^3 H]Urd (specific radioactivity: 21 Ci/mmol) and [5-^3 H]Cyd (specific radioactivity: 21 Ci/mmol) and were obtained from Moravek Biochemicals Inc. (Brea, Calif.)
(§3) The incorporation of [methyl-^3 H]dThd, [5-^3 H]dUrd, [5-^3 H]dCyd, [5-^3 H]Urd, [5-^3 H]Cyd and L-[4,5-^3 H]1eu into TCA-insoluble MT-4 cell material was measured in wells of a 96-well microtiter plate (Falcon-3072, Becton-Dickinson, New Jersey). To each well were added 10^5 MT-4 cells, 0.25 μCi of the radiolabeled precursor and a given amount of test compound. The cells were allowed to proliferate for 20 to 24 hr at 37° C. in a humidified, CO2 -controlled atmosphere. At the end of this incubation period, the contents of the wells (200 μl) were brought onto 25-mm glass fiber filters (type A/E, Gelman Instrument Company, Ann Arbor, Mich.), and mounted on a Millipore 3025 sampling manifold apparatus. The filters were washed twice with 2 ml and 5 ml cold NaCl/Pi (phosphte-buffered saline), twice with 2 and 5 ml cold 10% trichloroacetic acid (TCA), twice with 5 and 7.5 ml cold 5% TCA, and twice with 1 ml cold ethanol.

For the next data set, the system named is MT-4 cell RNA synthesis. Nature of the data set: Incorporation of radiolabeled precursors into MT-4 cell RNA. It counts as cell-based. The settings on record: Homo sapiens.
Excerpt: as §2, §3

The test system of data set [4] is MT-4 cells. The experiment in a line: Cytotoxicity for mock-infected MT-4 cells. As to conditions: at 100 μg/ml. Here is the method: as §1
Data set [5] in a line: Cytotoxicity for mock-infected MT-4 cells. The settings on record: human, mt-4 cells. Here is the method: as §1
Another data set deals with HIV-1 mutant strains. The experiment in a line: Resistance of HIV-1 strains selected against compounds 5, 6 and 7. In kind it is cell-based.
The subject of data set [6] is MT-4 cell protein synthesis. Nature of the data set: Incorporation of radiolabeled leucine into MT-4 cell protein. It counts as cell-based. The settings on record: Homo sapiens, MT4, read-out: IC50, L-[4,5-3H]leucine incorporation.
Excerpt: as §2, §3

The target in data set [7] is reverse transcriptase enzyme of the TSAO-resistant HIV-1 strains (HIV-1 M:B_HXB2R, UniProt P04585, E725K). It counts as binding. The settings on record: Glu-138 to Lys.

Consider `Cc1cn([C@H]2C[C@H](N=[N+]=[N-])[C@@H](CO)O2)c(=O)[nH]c1=O` [AZT, 3'-Azido-3'-deoxythymidine, reference compound], for which, in data set [1] (room temperature), the “partition coefficient (Pa)” value turned out to be 1.12. In data set [2], the “toxic side effects on long-term treatment” value is listed as “bone marrow suppression”. The “cytostatic activity depending on exposure time” value in the data set on MT-4 cells [3] (data not shown) was “less cytostatic the shorter its exposure time to MT-4 cells”. Further, in the data set on HIV-1, the “antiviral activity on delayed addition” value is on record as “almost totally lost”.
Regarding `Cc1cn([C@@H]2O[C@H](CO[Si](C)(C)C(C)(C)C)[C@@]3(OS(=O)(=O)C=C3N)[C@H]2O[Si](C)(C)C(C)(C)C)c(=O)[nH]c1=O` [Compound 5, {1-[2', 5'-Bis-O-(tert-butyldimethylsilyl)-β-D-ribofuranosyl]thymine}-3'-spiro-5"-{4"-amino-1",2"-oxathiole-2", 2"-dioxide}], the IC50 was found to be 115 µg/mL (≈ 195 µM) in the data set on MT-4 cell DNA synthesis (MT4, read-out: IC50, [5-3H]dCyd incorporation); 9.1 µg/mL (≈ 15.4 µM) in the data set with MT-4 cell DNA synthesis (MT4, read-out: IC50, [5-3H]dUrd incorporation); 13 µg/mL (≈ 22 µM) with MT-4 cell DNA synthesis (MT4, read-out: IC50, [methyl-3H]dThd incorporation); 8 µg/mL (≈ 13.6 µM) in the data set with MT-4 cell RNA synthesis (MT4, read-out: IC50, [5-3H]Cyd incorporation); 11 µg/mL (≈ 18.6 µM) in the data set with MT-4 cell RNA synthesis (MT4, read-out: IC50, [5-3H]Urd incorporation); 11.6 µg/mL (≈ 19.7 µM) in data set [6]. In addition, the “cytotoxicity to MT-4 cells (in words)” value in the data set with MT-4 cells [4] is “not cytotoxic”. The CC50 at 120 h in data set [5] was found to be 7.7 µg/mL (≈ 13.1 µM). Also, the “amino acid change in reverse transcriptase of HIV-1 strains selected for resistance” value in the data set with HIV-1 mutant strains is reported as “glutamic acid change at position 138 to lysine”. In addition, the “presence in the n-octanol phase compared to the aqueous phase” value in data set [1] is listed as “more than 95%”. The logD at 50 µM in data set [1] (room temperature) was > 1.3. Moreover, the “toxicity for MT-4 cells depending on contact time” value in the data set with MT-4 cells [3] (time of contact with the cells varied) is recorded as “not affected by the time that the compound had remained in contact with the cells”. The “decrease of antiviral activity on delayed addition” value with HIV-1 (addition delayed by 17-24 hours, data not shown) was 10 fold. In the data set on HIV-1, the “antiviral activity on delayed addition” value is given as “almost totally lost”.
Turning to `Cc1ccnc2c1NC(=O)c1cccnc1N2C1CC1` [Nevirapine, reference compound], the “affinity of mutated reverse transcriptase” value in [7] is given as “not for other HIV-1-specific compounds”.

As usually defined, the CC50 is the concentration at which the toxic effect on the cells reaches its halfway point. Read a high CC50 as better tolerance by the cells. One may read the logD as lipophilicity at a set pH, counting ionised and neutral species. A lower logD goes with a more hydrophilic compound.
